Measurements: ChEMBL document CHEMBL3352739, “Comparative in vivo evaluation of polyalkoxy substituted 4H-chromenes and oxa-podophyllotoxins as microtubule destabilizing agents in the phenotypic sea urchin embryo assay” (2014)

Experiments:
[1] = Growth inhibition of human RXF393 cells after 48 hrs by sulforhodamine B assay; assay type: functional; conditions: RXF 393, 48 h
Paracentrotus lividus [2] = test: Antimitotic microtubule destabilizing activity in Paracentrotus lividus L embryos assessed as induction of cleavage alteration
SK-MEL-5 = test: Growth inhibition of human SK-MEL-5 cells after 48 hrs by sulforhodamine B assay; assay type: functional; conditions: SK-MEL-5, 48 h
[3] = Growth inhibition of human RPMI8226 cells after 48 hrs by sulforhodamine B assay; assay type: functional; conditions: RPMI-8226, 48 h
[4] = Growth inhibition of human NCI-ADR-RES cells after 48 hrs by sulforhodamine B assay; assay type: functional
[5] = Growth inhibition of human EKVX cells after 48 hrs by sulforhodamine B assay; assay type: functional
DU-145 = test: Growth inhibition of human DU145 cells after 48 hrs by sulforhodamine B assay; assay type: functional; conditions: DU-145, 48 h
[6] = Growth inhibition of human HCT15 cells after 48 hrs by sulforhodamine B assay; assay type: functional; conditions: HCT-15, 48 h
NCI-H322M = test: Growth inhibition of human NCI-H322M cells after 48 hrs by sulforhodamine B assay; assay type: functional
SF-268 = test: Growth inhibition of human SF268 cells after 48 hrs by sulforhodamine B assay; assay type: functional; conditions: SF-268, 48 h
[7] = Growth inhibition of human BT549 cells after 48 hrs by sulforhodamine B assay; assay type: functional; conditions: BT-549, 48 h
[8] = Growth inhibition of human SF295 cells after 48 hrs by sulforhodamine B assay; assay type: functional; conditions: SF-295, 48 h
[9] = Growth inhibition of human HCC2998 cells after 48 hrs by sulforhodamine B assay; assay type: functional; conditions: HCC 2998, 48 h
TK-10 = test: Growth inhibition of human TK10 cells after 48 hrs by sulforhodamine B assay; assay type: functional; conditions: TK-10, 48 h
MDA-MB-231 = test: Growth inhibition of human MDA-MB-231 cells after 48 hrs by sulforhodamine B assay; assay type: functional; conditions: MDA-MB-231, 48 h
SR = test: Growth inhibition of human SR cells after 48 hrs by sulforhodamine B assay; assay type: functional
T47D = test: Growth inhibition of human T47D cells after 48 hrs by sulforhodamine B assay; assay type: functional
SK-OV-3 = test: Growth inhibition of human SKOV3 cells after 48 hrs by sulforhodamine B assay; assay type: functional; conditions: SK-OV-3, 48 h
[10] = Growth inhibition of human OVCAR8 cells after 48 hrs by sulforhodamine B assay; assay type: functional; conditions: OVCAR-8, 48 h
HL-60(TB) = test: Growth inhibition of human HL-60(TB) cells after 48 hrs by sulforhodamine B assay; assay type: functional; conditions: HL-60, 48 h
[11] = Growth inhibition of human OVCAR3 cells after 48 hrs by sulforhodamine B assay; assay type: functional; conditions: OVCAR-3, 48 h
KM12 = test: Growth inhibition of human KM12 cells after 48 hrs by sulforhodamine B assay; assay type: functional; conditions: KM12, 48 h
A549 = test: Growth inhibition of human A549/ATCC cells after 48 hrs by sulforhodamine B assay; assay type: functional; conditions: A549, 48 h
NCI-H460 = test: Growth inhibition of human NCI-H460 cells after 48 hrs by sulforhodamine B assay; assay type: functional; conditions: NCI-H460, 48 h
SNB-19 = test: Growth inhibition of human SNB19 cells after 48 hrs by sulforhodamine B assay; assay type: functional; conditions: SNB-19, 48 h
SW-620 = test: Growth inhibition of human SW620 cells after 48 hrs by sulforhodamine B assay; assay type: functional; conditions: SW-620, 48 h
SNB-75 = test: Growth inhibition of human SNB75 cells after 48 hrs by sulforhodamine B assay; assay type: functional; conditions: SNB-75, 48 h
HOP-62 = test: Growth inhibition of human HOP62 cells after 48 hrs by sulforhodamine B assay; assay type: functional; conditions: HOP-62, 48 h
[12] = Growth inhibition of human Hs 578T cells after 48 hrs by sulforhodamine B assay; assay type: functional
IGROV-1 = test: Growth inhibition of human IGROV1 cells after 48 hrs by sulforhodamine B assay; assay type: functional; conditions: IGROV-1, 48 h
[13] = Cytotoxicity against human NCI60 cells; assay type: functional
786-0 = test: Growth inhibition of human 786-0 cells after 48 hrs by sulforhodamine B assay; assay type: functional; conditions: 786-0, 48 h
[14] = Growth inhibition of human SF539 cells after 48 hrs by sulforhodamine B assay; assay type: functional; conditions: SF-539, 48 h
CCRF-CEM = test: Growth inhibition of human CCRF-CEM cells after 48 hrs by sulforhodamine B assay; assay type: functional
MDA-MB-468 = test: Growth inhibition of human MDA-MB-468 cells after 48 hrs by sulforhodamine B assay; assay type: functional; conditions: MDA-MB-468, 48 h
NCI-H23 = test: Growth inhibition of human NCI-H23 cells after 48 hrs by sulforhodamine B assay; assay type: functional; conditions: NCI-H23, 48 h
MCF7 = test: Growth inhibition of human MCF7 cells after 48 hrs by sulforhodamine B assay; assay type: functional; conditions: MCF7, 48 h
HT-29 = test: Growth inhibition of human HT-29 cells after 48 hrs by sulforhodamine B assay; assay type: functional; conditions: HT-29, 48 h
[15] = Growth inhibition of human COLO205 cells after 48 hrs by sulforhodamine B assay; assay type: functional; conditions: COLO 205, 48 h
NCI-H522 = test: Growth inhibition of human NCI-H522 cells after 48 hrs by sulforhodamine B assay; assay type: functional; conditions: NCI-H522, 48 h
SN12C = test: Growth inhibition of human SN12C cells after 48 hrs by sulforhodamine B assay; assay type: functional
[16] = Growth inhibition of human MOLT4 cells after 48 hrs by sulforhodamine B assay; assay type: functional; conditions: MOLT-4, 48 h
[17] = Growth inhibition of human UACC257 cells after 48 hrs by sulforhodamine B assay; assay type: functional; conditions: UACC-257, 48 h
Paracentrotus lividus [18] = test: Antimitotic microtubule destabilizing activity in Paracentrotus lividus L embryos assessed as induction of embryo spinning
NCI-H226 = test: Growth inhibition of human NCI-H226 cells after 48 hrs by sulforhodamine B assay; assay type: functional; conditions: NCI-H226, 48 h
[19] = Growth inhibition of human OVCAR5 cells after 48 hrs by sulforhodamine B assay; assay type: functional; conditions: OVCAR-5, 48 h
[20] = Growth inhibition of human LOXIMVI cells after 48 hrs by sulforhodamine B assay; assay type: functional; conditions: LOX IMVI
U-251 = test: Growth inhibition of human U251 cells after 48 hrs by sulforhodamine B assay; assay type: functional; conditions: U-251, 48 h
M14 = test: Growth inhibition of human M14 cells after 48 hrs by sulforhodamine B assay; assay type: functional; conditions: M14, 48 h
CAKI-1 = test: Growth inhibition of human CAKI-1 cells after 48 hrs by sulforhodamine B assay; assay type: functional; conditions: CAKI-1, 48 h
[21] = Growth inhibition of human UO31 cells after 48 hrs by sulforhodamine B assay; assay type: functional; conditions: UO-31, 48 h
[22] = Growth inhibition of human HCT116 cells after 48 hrs by sulforhodamine B assay; assay type: functional; conditions: HCT-116, 48 h
A498 = test: Growth inhibition of human A498 cells after 48 hrs by sulforhodamine B assay; assay type: functional; conditions: A498, 48 h
Malme-3M = test: Growth inhibition of human MALME-3M cells after 48 hrs by sulforhodamine B assay; assay type: functional
[23] = Growth inhibition of human OVCAR4 cells after 48 hrs by sulforhodamine B assay; assay type: functional; conditions: OVCAR-4, 48 h
MDA-MB-435 = test: Growth inhibition of human MDA-MB-435 cells after 48 hrs by sulforhodamine B assay; assay type: functional; conditions: MDA-MB-435, 48 h
[24] = Growth inhibition of human PC3 cells after 48 hrs by sulforhodamine B assay; assay type: functional; conditions: PC-3, 48 h
SK-MEL-2 = test: Growth inhibition of human SK-MEL-2 cells after 48 hrs by sulforhodamine B assay; assay type: functional; conditions: SK-MEL-2, 48 h
[25] = Growth inhibition of human UACC62 cells after 48 hrs by sulforhodamine B assay; assay type: functional; conditions: UACC-62, 48 h
SK-MEL-28 = test: Growth inhibition of human SK-MEL-28 cells after 48 hrs by sulforhodamine B assay; assay type: functional; conditions: SK-MEL-28, 48 h
Paracentrotus lividus [26] = test: Antimitotic microtubule destabilizing activity in Paracentrotus lividus L embryos assessed as induction of cleavage arrest
[27] = Growth inhibition of human HOP92 cells after 48 hrs by sulforhodamine B assay; assay type: functional; conditions: HOP-92, 48 h
K562 = test: Growth inhibition of human K562 cells after 48 hrs by sulforhodamine B assay; assay type: functional; conditions: K562, 48 h
ACHN = test: Growth inhibition of human ACHN cells after 48 hrs by sulforhodamine B assay; assay type: functional

COc1cccc(C2C(C#N)=C(N)Oc3cc4c(cc32)OCO4)c1 (configuration not stated)
GI50 [1]: 29 nM
EC (Paracentrotus lividus [2]): 0.005 µM
GI50 (SK-MEL-5): 37.8 nM
GI50 [3]: 105 nM
GI50 [4]: 30.2 nM
GI50 [5]: 259 nM
GI50 (DU-145): 84.5 nM
GI50 [6]: 44.7 nM
GI50 (NCI-H322M): 2110 nM
GI50 (SF-268): 54.1 nM
GI50 [7]: 87.4 nM
GI50 [8]: 34.4 nM
GI50 [9]: 101 nM
GI50 (TK-10): 6010 nM
GI50 (MDA-MB-231): 2170 nM
GI50 (SR): 30.2 nM
GI50 (T47D): 50.2 nM
GI50 (SK-OV-3): 36.2 nM
GI50 [10]: 97.1 nM
GI50 (HL-60(TB)): 24.2 nM
GI50 [11]: 25.6 nM
GI50 (KM12): 36.5 nM
GI50 (A549): 62.5 nM
GI50 (NCI-H460): 44 nM
GI50 (SNB-19): 54.3 nM
GI50 (SW-620): 36.5 nM
GI50 (SNB-75): 23.8 nM
GI50 (HOP-62): 43.2 nM
GI50 [12]: 31.6 nM
GI50 (IGROV-1): 97.3 nM
GI50 [13]: 65 nM
GI50 (786-0): 58.7 nM
GI50 [14]: 34.4 nM
GI50 (CCRF-CEM): 36 nM
GI50 (MDA-MB-468): 25.4 nM
GI50 (NCI-H23): 97.7 nM
GI50 (MCF7): 36.4 nM
GI50 (HT-29): 46.2 nM
GI50 [15]: 43.2 nM
GI50 (NCI-H522): 23.1 nM
GI50 (SN12C): 79.2 nM
GI50 [16]: 6.17 nM
GI50 [17]: 47.1 nM
EC (Paracentrotus lividus [18]): 0.2 µM
GI50 (NCI-H226): 45.5 nM
GI50 [19]: 447 nM
GI50 [20]: 46 nM
GI50 (U-251): 46.2 nM
GI50 (M14): 54.9 nM
GI50 (CAKI-1): 40.9 nM
GI50 [21]: 58.9 nM
GI50 [22]: 49.8 nM
GI50 (A498): 29.1 nM
GI50 (Malme-3M): 50.1 nM
GI50 [23]: 2510 nM
GI50 (MDA-MB-435): 20.3 nM
GI50 [24]: 65.6 nM
GI50 (SK-MEL-2): 30.1 nM
GI50 [25]: 43.4 nM
GI50 (SK-MEL-28): 70 nM
EC (Paracentrotus lividus [26]): 0.05 µM

COc1cc(C2C(C#N)=C(N)Oc3cc(O)ccc32)cc(OC)c1OC (configuration not stated)
GI50 [1]: 287 nM
EC (Paracentrotus lividus [2]): 4 µM
GI50 (SK-MEL-5): 305 nM
GI50 [3]: 691 nM
GI50 [27]: 301 nM
GI50 [4]: 2320 nM
GI50 [5]: 6490 nM
GI50 (K562): 460 nM
GI50 (DU-145): 637 nM
GI50 [6]: 513 nM
GI50 (NCI-H322M): 783 nM
GI50 (SF-268): 14500 nM
GI50 (ACHN): 922 nM
GI50 [7]: 386 nM
GI50 [8]: 323 nM
GI50 [9]: 975 nM
GI50 (TK-10): 9830 nM
GI50 (MDA-MB-231): 927 nM
GI50 (SR): 371 nM
GI50 (SK-OV-3): 560 nM
GI50 [10]: 836 nM
GI50 (HL-60(TB)): 327 nM
GI50 [11]: 338 nM
GI50 (KM12): 451 nM
GI50 (A549): 638 nM
GI50 (NCI-H460): 374 nM
GI50 (SNB-19): 811 nM
GI50 (SW-620): 347 nM
GI50 (SNB-75): 271 nM
GI50 (HOP-62): 796 nM
GI50 [12]: 463 nM
GI50 (IGROV-1): 2840 nM
GI50 [13]: 692 nM
GI50 (786-0): 605 nM
GI50 [14]: 347 nM
GI50 (CCRF-CEM): 375 nM
GI50 (MDA-MB-468): 250 nM
GI50 (NCI-H23): 813 nM
GI50 (MCF7): 324 nM
GI50 (HT-29): 392 nM
GI50 [15]: 852 nM
GI50 (NCI-H522): 255 nM
GI50 (SN12C): 790 nM
GI50 [16]: 652 nM
EC (Paracentrotus lividus [18]): > 4 µM
GI50 (NCI-H226): 31200 nM
GI50 [19]: 4520 nM
GI50 [20]: 523 nM
GI50 (U-251): 349 nM
GI50 (M14): 375 nM
GI50 (CAKI-1): 885 nM
GI50 [21]: 2800 nM
GI50 [22]: 453 nM
GI50 (A498): 161 nM
GI50 [23]: 3490 nM
GI50 (MDA-MB-435): 136 nM
GI50 [24]: 462 nM
GI50 (SK-MEL-2): 539 nM
GI50 [25]: 358 nM
GI50 (SK-MEL-28): 934 nM
EC (Paracentrotus lividus [26]): > 4 µM
